Data on five compounds can be found in patent US6602900B2, “Cyclopentane heptan(ENE)oic acid, 2-heteroarylalkenyl derivatives as therapeutic agents” (Allergan, Inc., priority 1992, dated 2003).

The subject of one data set is intraocular pressure. Particulars: ocular; cited from earlier work.
The next data set relates to ocular surface. Particulars: humans; cited from earlier work.
The subject of a further data set is Dog intraocular pressure. The data set is described as follows: Dog intraocular pressure by applanation pneumatonometry. In kind it is in vivo. Particulars: dogs. On the procedure:
The compounds were prepared at the said concentrations in a vehicle comprising 0.1% polysorbate 80 and 10 mM TRIS base. Dogs were treated by administering 25 μl to the ocular surface, the contralateral eye received vehicle as a control. Intraocular pressure was measured by applanation pneumatonometry. Dog intraocular pressure was measured immediately before drug administration and at 6 hours thereafter.

`CCCCC[C@H](O)/C=C/[C@@H]1[C@@H](C/C=C\CCCC(=O)OC(C)C)[C@@H](O)C[C@H]1O` [isopropyl ester of PGF2α]: the “hypotensive potency versus parent compound (in words)” value with intraocular pressure is given as “significantly greater hypotensive potency than the parent compound”. Also, the “side effects of topical ocular use (in words)” value with ocular surface was “ocular surface (conjunctival) hyperemia and foreign-body sensation”.
Turning to `O=C(O)CCC/C=C\C[C@@H]1[C@@H](/C=C/[C@@H](O)CCc2cc(Cl)sc2Cl)[C@H](O)C[C@@H]1O` [Compound 4g, 7-[3α,5α-Dihydroxy-2-(3α-hydroxy-5-(3-(2,5-dichloro)thienyl)-1E-pentenyl)cyclopentyl]-5Z-heptenoic acid], the “ocular hypotensive effect (in words)” value in the data set on Dog intraocular pressure was “pronounced ocular hypotensive effect”.
`Cc1c(Br)csc1CCC(O)/C=C/C1C(O)CC(O)C1C/C=C\CCCC(N)=O` (stereo not drawn) [Compound 8u]: in the data set with Dog intraocular pressure, the “ocular hypotensive effect (in words)” value was “pronounced ocular hypotensive effect”.
Turning to prostaglandin F2α [PGF2α], in the data set with ocular surface, the “side effects of topical ocular use (in words)” value is “ocular surface (conjunctival) hyperemia and foreign-body sensation”.
As to `NC(=O)CCC/C=C\CC1C(O)CC(O)C1/C=C/C(O)CCc1sccc1I` (stereo not drawn) [Compound 8t], the “ocular hypotensive effect (in words)” value in the data set on Dog intraocular pressure is reported as “pronounced ocular hypotensive effect”.
